{"source": "patent US7994218B2", "about": "“Simple pantoic acid ester neopentyl sulfonyl ester cyclization release prodrugs of acamprosate, compositions thereof, and methods of use” (XenoPort, Inc., priority 2007, dated 2011)", "origin": "cited, not measured here", "key": {"[1]": {"conditions": "acamprosate doses about 1-2 gm per day"}, "cocaine conditioned mice": {"tested_on": "cocaine conditioned mice", "conditions": "100 mg/kg acamprosate for 3 days"}}, "data": [{"smiles": "CC(=O)NCCCS(=O)(=O)O", "note": "[acamprosate, 3-(Acetylamino)propylsulfonic acid]", "values": [{"measurement": "time at which steady-state plasma concentration occurs post-dose", "setting": "[1]", "result": "3 to 8", "unit": "h"}, {"measurement": "effect on relapse-like behavior", "setting": "cocaine conditioned mice", "result": "attenuated relapse-like behavior"}]}]}
